{"source": "patent US9150521B2", "about": "“Methods of preventing and treating diabetes by inhibiting serotonin synthesis” (The Trustees of Columbia University in the City of New York, priority 2012, dated 2015)", "key": {"[1]": {"test_system": "WT mice", "assay": "Insulin tolerance test", "assay_type": "in vivo", "from_the_text": "(§1) Mice were housed under 12:12 light:dark cycle and chow and water were provided ad libitum. All animals were maintained according to NIH guidelines. The Htr2bflox/flox, Tph1flox/flox, and Villin-cre mice have been described previously (1). Alb-cre and aP2-cre mice were obtained from the Jackson Laboratory. For glucose tolerance tests mice were fasted overnight before i.p. injection of 2 g/kg body weight (BW) d-glucose in phosphate buffered saline (PBS) or 1 g/kg BW when mice were fed high fat diet. For pyruvate tolerance tests, mice were fasted overnight, injected i.p. with 2 g/kg BW sodium pyruvate in PBS. Glycerol tolerance test (4 g/kg BW) was performed after 4 h fasting. For insulin tolerance tests, mice were injected with 0.75 U/kg of insulin after 4 h fasting. Glucose was measured by tail vein bleeds at the indicated intervals using an ACCU-CHECK® glucometer. Measurement of free fatty acids (FFA) and glycerol were performed in plasma using a serum triglycerides determination kit (TR0100, Sigma) and a NEFA-HR(2) kit (WAKO Diagnostics). Plasma concentration of serotonin and glucagon were determined by Glucagon ELISA (Alpco, 48-GLUHU-E01) and Serotonin (Research) ELISA, (IBL-America, IB89540). Hyperinsulinemic-euglycemic clamp was performed in the University of Massachusetts Mouse Phenotyping Center, University of Massachusetts Medical School. […]"}, "[2]": {"target": "TPH1 (Mus musculus, UniProt P17532)", "sequence (P17532 whole entry)": "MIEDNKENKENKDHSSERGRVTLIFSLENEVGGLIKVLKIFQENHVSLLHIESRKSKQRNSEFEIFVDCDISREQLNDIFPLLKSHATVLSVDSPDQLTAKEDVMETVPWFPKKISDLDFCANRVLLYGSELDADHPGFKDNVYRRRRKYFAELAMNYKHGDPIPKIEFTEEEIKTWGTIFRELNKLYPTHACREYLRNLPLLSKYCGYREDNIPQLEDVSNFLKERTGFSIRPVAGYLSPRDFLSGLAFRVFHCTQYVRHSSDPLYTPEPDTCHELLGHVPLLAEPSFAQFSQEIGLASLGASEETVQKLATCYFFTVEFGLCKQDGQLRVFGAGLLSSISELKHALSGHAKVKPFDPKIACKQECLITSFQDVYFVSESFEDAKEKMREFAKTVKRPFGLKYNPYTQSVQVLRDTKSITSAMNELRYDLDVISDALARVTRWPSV", "details": "WT mice fed a high fat diet; LP533401 100 mg/kg/day by gavage", "from_the_text": "as §1"}, "[3]": {"details": "reference 24 (Liu et al. 2008); cited from earlier work"}, "[4]": {"test_system": "WT mice", "assay": "Glucose tolerance test", "assay_type": "in vivo", "from_the_text": "as §1"}, "[5]": {"test_system": "WT mice", "assay": "Pyruvate tolerance test (gluconeogenesis)", "assay_type": "in vivo", "from_the_text": "as §1"}, "[6]": {"test_system": "WT mice", "assay": "Plasma levels of glycerol and FFA in mice", "assay_type": "in vivo", "from_the_text": "(§2) All animals were maintained according to NIH guidelines."}, "[7]": {"test_system": "epididymal fat pads", "assay": "In vitro lipolysis of isolated fat pads", "assay_type": "cell-based, mouse", "procedure": "(§3) In vitro lipolysis assay was performed as described (4). Briefly, epididymal fat pads were isolated and washed several times in Hank's Balanced Salt Solution (HBSS) (Sigma). Tissue pieces (˜25 mg) were incubated in Dulbecco's Modified Eagle's Medium (DMEM) medium (Invitrogen) containing 2% fatty acid free bovine serum albumin (Sigma) at 37° C. for 1 h. After this preincubation, the fat explants were transferred into identical, fresh medium containing serotonin (Sigma) or 10 μM forskolin as a positive control and incubated further for the indicated time-points at 37° C. Afterwards, aliquots of medium were taken for measurements of FFAs and glycerol using available kits (NEFA-HR(2), WAKO Diagnostics; serum triglycerides determination kit, TR0100, Sigma) and tissue was lysed with RIPA buffer for subsequent Western blot analysis or in TRIZOL® (Invitrogen) for gene expression analysis."}, "[8]": {"assay": "Plasma serotonin concentration in mice implanted with serotonin-releasing pellets", "assay_type": "in vivo", "details": "WT mice, subcutaneous serotonin releasing pellets", "from_the_text": "as §2\nThis was done by implanting subcutaneously serotonin releasing pellets in WT mice. These pellets increased circulating levels of serotonin approximately two-fold (FIG. 5C)."}, "[9]": {"test_system": "WT mice", "assay": "Glycerol tolerance test in WT mice implanted with serotonin-releasing pellets", "assay_type": "in vivo", "details": "WT mice implanted with serotonin pellets vs placebo controls", "from_the_text": "as §2"}, "[10]": {"test_system": "hormone sensitive lipase (HSL)", "assay": "Western blot of lipolytic enzymes in fat explants stimulated with serotonin", "assay_type": "cell-based, mouse", "details": "50 μM serotonin, Htr2b-dependent", "procedure": "as §3\nWestern blotting was performed according to standard procedures. Frozen tissues or cells were homogenized and lysed with RIPA buffer. Membranes were blocked and then incubated overnight with primary antibody in TBST-5% BSA, followed by incubation with appropriate HRP-conjugated secondary antibody. Signals were visualized with ECL. […]"}, "[11]": {"test_system": "primary hepatocytes", "assay": "In vitro glucose production in primary hepatocytes", "assay_type": "cell-based, mouse", "details": "for conversion of glycerol to glucose in hepatocytes: primary hepatocytes, indicated doses of serotonin or 100 nM glucagon", "procedure": "Production of glucose was assessed in primary, freshly isolated, attached hepatocytes. Briefly, cells were platted on 12 well plate format (200,000 cells per well). After isolation, the cells were allowed to attach and recover for 6 h in Williams E medium containing 10% fetal calf serum. Then they were washed and starved for 1 h in Dulbecco's Modified Eagle's DMEM without glucose and phenol red but with 2 mM L-glutamate and 0.5% BSA (D5030, Sigma). Then the cells were switched to the same medium or the same medium containing 10 mM glycerol and stimulated with the indicated substances for 6 h. Glucose concentration was determined in the medium using Amplex Red Glucose/Glucose Oxidase Assay Kit, (Invitrogen, A22189). Glucose production from glycerol was determined by subtracting glucose produced by the cells incubated without glycerol from this incubated with glycerol."}, "[12]": {"details": "WT mice fed a normal diet, compared with Tph1gutΔ/Δ mice"}, "[13]": {"details": "mice fed a high fat diet, LP533401 100 mg/kg/day"}, "[14]": {"details": "WT mice fed a high fat diet, fasted for 4 h, LP533401 100 mg/kg/day"}, "[15]": {"details": "Htr2b-deficient fat pad explants, 50 μM serotonin or 1 μM isoproterenol"}, "[16]": {"details": "epididymal fat pads treated with increasing amounts of serotonin"}, "[17]": {"details": "fed WT mice, subcutaneous serotonin releasing pellets"}}, "data": [{"molecule": "Nc1nc(OC(c2ccc(-c3cccc(F)c3)cc2)C(F)(F)F)cc(-c2ccc(C[C@H](N)C(=O)O)cc2)n1", "note": "(stereo partly drawn) [LP533401]", "values": [{"measurement": "insulin tolerance", "setting": "[1]; [12]", "value": "improved"}, {"measurement": "insulin sensitivity", "setting": "[1]; [13]", "value": "normalized"}, {"measurement": "reduction of circulating serotonin levels", "setting": "[2]", "value": 80, "unit": "%"}, {"measurement": "crossing of the blood-brain barrier", "setting": "[3]", "value": "does not cross efficiently the blood-brain barrier"}, {"measurement": "glucose tolerance", "setting": "[4]; [12]", "value": "improved"}, {"measurement": "glucose tolerance", "setting": "[4]; [13]", "value": "significantly improved"}, {"measurement": "gluconeogenesis rate", "setting": "[5]; WT mice fed a normal diet", "value": "decreased"}, {"measurement": "gluconeogenesis", "setting": "[5]; [13]", "value": "significantly improved"}, {"measurement": "FFAs circulating levels", "setting": "[6]; [14]", "value": "normalization"}, {"measurement": "glycerol circulating levels", "setting": "[6]; [14]", "value": "decrease"}, {"measurement": "FFA levels", "setting": "[6]; WT mice fed a normal diet", "value": "decreased"}, {"measurement": "glycerol levels", "setting": "[6]; WT mice fed a normal diet", "value": "decreased"}]}, {"molecule": "CC(C)NCC(O)c1ccc(O)c(O)c1", "note": "(stereo not drawn) [isoproterenol]", "values": [{"measurement": "release of FFAs", "setting": "[7]; [15]", "value": "favored equally well"}, {"measurement": "release of glycerol", "setting": "[7]; [15]", "value": "favored equally well"}]}, {"molecule": "NCCc1c[nH]c2ccc(O)cc12", "note": "[serotonin, 5-hydroxytryptamine]", "values": [{"measurement": "increase of circulating levels of serotonin", "setting": "[8]", "value": "approximately two-fold"}, {"measurement": "release of FFAs", "setting": "[7]; [15]", "value": "failed to enhance"}, {"measurement": "release of glycerol", "setting": "[7]; [15]", "value": "failed to enhance"}, {"measurement": "release of FFAs", "setting": "[7]; [16]", "value": "significantly increased"}, {"measurement": "release of glycerol", "setting": "[7]; [16]", "value": "significantly increased"}, {"measurement": "blood glucose levels after glycerol", "setting": "[9]", "value": "to a higher level than in controls"}, {"measurement": "phosphorylation of hormone sensitive lipase (HSL) on serine residues 563 and 660", "setting": "[10]", "value": "favored"}, {"measurement": "glucose production from glycerol", "setting": "[11]; Htr2bΔ/Δ hepatocytes, 50 μM serotonin", "value": "could not induce"}, {"measurement": "conversion of glycerol to glucose in hepatocytes", "setting": "[11]", "value": "stimulated"}, {"measurement": "lipolysis", "setting": "[6]; WT mice implanted with serotonin pellets, fasted for 4 h", "value": "further enhanced"}, {"measurement": "circulating levels of FFAs", "setting": "[6]; [17]", "value": "significant increase"}, {"measurement": "circulating levels of glycerol", "setting": "[6]; [17]", "value": "significant increase"}]}, {"molecule": "glucagon", "values": [{"measurement": "conversion of glycerol to glucose in hepatocytes", "setting": "[11]", "value": "stimulated"}]}]}
